# Test results: US20100063007A1, “PESTICIDE C[…]-[…] AND AN I[…] SUBSTANCE” (BAYER CROPSCIENCE AG, priority 2006, published 2010)
# Assays:
# Spodoptera frugiperda = assay: Efficacy Example B: Spodoptera frugiperda test (cabbage leaf dip, larval mortality); format: in vivo; conditions: mortality of larvae after 6 days
# Protocol: Efficacy Example B: Spodoptera frugiperda Test
# (§1) After a period of time of 6 days, the mortality is determined. 100% means that all the caterpillars have been killed; 0% means that none of the caterpillars have been killed.
# Plutella xylostella = assay: Efficacy Example A: Plutella xylostella test (cabbage leaf dip, larval mortality); format: in vivo; conditions: mortality of larvae after 6 days
# Protocol: Efficacy Example A: Plutella xylostella Test
# as §1
compound,measurement,setting,value
CN1COCN(Cc2cnc(Cl)s2)/C1=N\[N+](=O)[O-] [thiamethoxam],Efficacy (%),Spodoptera frugiperda; rate of application 20 ppm,0%
O=[N+]([O-])NC1=NCCN1Cc1ccc(Cl)nc1 [imidacloprid],Efficacy (%),Spodoptera frugiperda; rate of application 4 ppm,30%
CN/C(=N\[N+](=O)[O-])NCc1cnc(Cl)s1 [clothianidin],Efficacy (%),Plutella xylostella; rate of application 100 ppm,80%
N#C/N=C1\SCCN1Cc1ccc(Cl)nc1 [thiacloprid],Efficacy (%),Plutella xylostella; rate of application 20 ppm,5%
